The structures appear in SMILES notation. Where “and” joins values, the source holds several entries; their conditions need not be identical. Identical values can stand only once. Entries after “also recorded” stand apart in the source; their conditions may differ. Counter-ions that a name gives are not always drawn. A value given as a limit tells only on which side of the number the result lay.

This is an account of results in patent US10981864B2, “Crystalline modifications of N-(4,5-bismethanesulfonyl-2-methylbenzoyl)guanidine hydrochloride and N-(4,5-bismethanesulfonyl-2-methylbenzoyl)guanidine salts” (MERCK PATENT GMBH, priority 2016, dated 2021).

What all share (format): physicochemical
Data set [1] in a line: Mini-dissolution in FeSSIF medium (pH 5.0), dissolved quantity by HPLC. Particulars: for Dissolution levels in FeSSIF pH 5.0: FeSSIF pH 5.0, 37° C.; for Dissolution behavior compared to prior-art form HCl-H1: biorelevant media, Fed-state conditions (FeSSIF, pH 5.0). The method, then:
Approximately 10-12 mg of N-(4,5-bis-methanesulfonyl-2-methyl-benzoyl)guanidine form HCl-H1 (HCl salt hydrate form, prior-art), HCl salt anhydrous forms (forms HCl-A1, HCl-A2, HCl-A3), and novel salt forms [phosphate salt (form Phosphate-NF1), maleate salt (form Maleate-NF2), oxalate salt (form Oxalate-NF1), citrate salt (form citrate-NF1), sulfate salt (form Sulfate-NF3), succinate salt (form Succinate-NF1), malonate salt (form Malonate-NF1), besylate salt (form Besylate-NF1), p-tosylate salt (form Tosylate-NF1), malate salt (form Malate-NF1), fumarate salt (form Fumarate-NF1), tartrate salt (form Tartrate-NF1)] are weighed into 4 mL glass vials, and dispersed in 4 mL FeSSIF medium (pH 5.0, Acetate buffer capacity increased by factor 4 to ensure stable pH conditions over course of dissolution experiments).
All dispersions are agitated at 37° C. for up to 2 hours. At defined time intervals (5 min, 15 min, 60 min, 120 min), 0.4 mL sample aliquots of homogeneous dispersions are withdrawn by a syringe, and filtrated via syringe filter adapters (PTFE, 0.2 μm). Clear filtrates are diluted (1:20) with respective Acetate blank buffer, and diluted samples analyzed by HPLC for dissolved quantities of N-(4,5-bis-methanesulfonyl-2-methyl-benzoyl)-guanidine.

The nature of data set [2]: Water Vapour Sorption isotherm (DVS), hygroscopicity acc. to Ph. Eur. Particulars: for Water uptake levels (Water Vapour Sorption): 25° C.; for Tendency to undergo hydrate formation: upon exposure to elevated RH levels. The method, then:
As used herein, unless stated otherwise, Water Vapour Sorption isotherm measurements are carried out on a DVS-1 or a DVS-Intrinsic system from SMS.
A second endothermic event occurs at >180° C., which is due to melting of the dehydrated form. This is followed by immediate re-crystallisation (exothermic event), and subsequent melting of the re-crystallized phase at >240° C. […] DSC scan of form HCl-H1 was acquired on a Mettler-Toledo DSC 821 with a heating rate of 5 K/min, using nitrogen purge gas at 50 mL/min. […] Form HCl-H1 can be classified as non-hygroscopic acc. to Ph. Eur. criteria (section 5.11.). […] Water Vapour Sorption isotherm was acquired on a DVS-1 system from SMS. • Dissolution level of form HCl-H1 in Fed-State Simulated Intestinal Fluid [FeSSIF, pH 5.0] at 37° C. was determined to be approx. 1.50 mg/mL (after 15 min), approx. 4.16 mg/mL (after 60 min), and approx. 4.54 mg/mL (after 120 min), respectively (see example 17).

Data set [3] can be described thus: Thermal behaviour (DSC/TGA), thermal stability. Particulars: DSC/TGA 5 K/min. The method, then: As used herein, unless stated otherwise, the DSC measurements are carried out using a Mettler-Toledo DSC 821 with a heating rate of 5 K/min, using nitrogen purge gas at 50 mL/min.
As used herein, unless stated otherwise, the TGA measurements are carried out using a Mettler-Toledo TGA 851 with a heating rate of 5 K/min, using nitrogen purge gas at 50 mL/min.

The mark [4] stands for this setting: relative humidity range 0-90% rh.
Where [5] appears, read: relative humidity range 0-80% rh.
The mark [6] stands for this setting: entire relative humidity range 0-98% rh.

In the case of `Cc1cc(S(C)(=O)=O)c(S(C)(=O)=O)cc1C(=O)NC(=N)N` (racemic) [Tartrate-NF1, N-(4,5-bis-methanesulfonyl-2-methyl-benzoyl)-guanidine], the “Dissolution levels in FeSSIF pH 5.0” value is 5.165 mg/mL in data set [1] (5 min); 5.17±0.02 mg/mL and 5.165 mg/mL in data set [1] (15 min); 5.17±0.02 mg/mL and 5.165 mg/mL in data set [1] (60 min); 5.17±0.02 mg/mL in data set [1] (120 min). Also, the “Dissolution behavior compared to prior-art form HCl-H1” value in data set [1] is reported as “improved dissolution behavior”. In addition, the “Hygroscopicity classification acc. to Ph. Eur. criteria (section 5.11.)” value in data set [2] is reported as “slightly hygroscopic”. The “Water uptake levels (Water Vapour Sorption)” value (“Water uptake levels” for short) in data set [2] (setting [4]) is on record as ≤ 1.0 wt %.
Regarding `Cc1cc(S(C)(=O)=O)c(S(C)(=O)=O)cc1C(=O)NC(=N)N` [Besylate-NF1, N-(4,5-bis-methanesulfonyl-2-methyl-benzoyl)-guanidine], the “Dissolution levels in FeSSIF pH 5.0” value in data set [1] (5 min) is 4.059 mg/mL; in data set [1] (15 min), 5.57±0.02 mg/mL and 5.570 mg/mL; in data set [1] (60 min) it was 5.57±0.02 mg/mL and 5.570 mg/mL; in data set [1] (120 min) it was 3.87±0.02 mg/mL and 3.873 mg/mL. The “Dissolution behavior compared to prior-art form HCl-H1” value in data set [1] is recorded as “improved dissolution behavior”. The “Hygroscopicity classification acc. to Ph. Eur. criteria (section 5.11.)” value in data set [2] is “slightly hygroscopic”. The “Water uptake levels” value in data set [2] (setting [5]) was 1.0 wt %. For the same compound, the “Thermal stability (mp/dec)” value in data set [3] is > 280 °C.
As to `Cc1cc(S(C)(=O)=O)c(S(C)(=O)=O)cc1C(=O)NC(=N)N` [Citrate-NF1, N-(4,5-bis-methanesulfonyl-2-methyl-benzoyl)-guanidine], the “Dissolution levels in FeSSIF pH 5.0” value in data set [1] (5 min) was 2.056 mg/mL; in data set [1] (15 min) it was 4.13±0.02 mg/mL and 4.132 mg/mL. The “Dissolution behavior compared to prior-art form HCl-H1” value in data set [1] is listed as “improved dissolution behavior”. In addition, the “Hygroscopicity classification acc. to Ph. Eur. criteria (section 5.11.)” value in data set [2] is listed as “slightly hygroscopic”. The “Water uptake levels” value in data set [2] (setting [4]) is reported as ≤ 1.5 wt %. The “Tendency to undergo hydrate formation” value in data set [2] is “no tendency to undergo hydrate formation”. Besides, in data set [3], the “Thermal stability (mp/dec)” value is ~180 °C.
Take `Cc1cc(S(C)(=O)=O)c(S(C)(=O)=O)cc1C(=O)NC(=N)N` [Fumarate-NF1, N-(4,5-bis-methanesulfonyl-2-methyl-benzoyl)-guanidine]: the “Dissolution levels in FeSSIF pH 5.0” value in data set [1] (5 min) was 2.606 mg/mL; in data set [1] (15 min) it was 4.22±0.02 mg/mL and 4.222 mg/mL; in data set [1] (60 min), 4.34±0.02 mg/mL and 4.337 mg/mL; in data set [1] (120 min), 4.36±0.02 mg/mL and 4.361 mg/mL. In data set [1], the “Dissolution behavior compared to prior-art form HCl-H1” value is reported as “improved dissolution behavior”. Moreover, the “Hygroscopicity classification acc. to Ph. Eur. criteria (section 5.11.)” value in data set [2] is given as “slightly hygroscopic”.
In the case of `Cc1cc(S(C)(=O)=O)c(S(C)(=O)=O)cc1C(=O)NC(=N)N` [HBr-NF1, N-(4,5-bis-methanesulfonyl-2-methyl-benzoyl)-guanidine], the “Hygroscopicity classification acc. to Ph. Eur. criteria (section 5.11.)” value in data set [2] was “non-hygroscopic”. The “Water uptake levels” value in data set [2] (relative humidity range 10-90% rh) is 4.3-4.4 wt %.
With `Cc1cc(S(C)(=O)=O)c(S(C)(=O)=O)cc1C(=O)NC(=N)N` [HCl-A1, N-(4,5-bis-methanesulfonyl-2-methyl-benzoyl)-guanidine], the “Dissolution levels in FeSSIF pH 5.0” value in data set [1] (5 min) is 0.541 mg/mL; in data set [1] (15 min) it was 0.87±0.02 mg/mL and 0.866 mg/mL; in data set [1] (60 min), 2.53±0.02 mg/mL and 2.535 mg/mL; in data set [1] (120 min) it was 2.76±0.02 mg/mL and 2.765 mg/mL.
Turning to `Cc1cc(S(C)(=O)=O)c(S(C)(=O)=O)cc1C(=O)NC(=N)N` [HCl-A2, N-(4,5-bis-methanesulfonyl-2-methyl-benzoyl)-guanidine], the “Dissolution levels in FeSSIF pH 5.0” value was 0.990 mg/mL in data set [1] (5 min); 1.19±0.02 mg/mL and 1.193 mg/mL in data set [1] (15 min); 1.90±0.02 mg/mL and 1.897 mg/mL in data set [1] (60 min); 2.21±0.02 mg/mL and 2.213 mg/mL in data set [1] (120 min). Besides, the “Hygroscopicity classification acc. to Ph. Eur. criteria (section 5.11.)” value in data set [2] is recorded as “non-hygroscopic”. Also, the “Water uptake levels” value in data set [2] (setting [5]) was 0.1 wt %. The “Thermal stability (mp/dec)” value in data set [3] was > 240 °C.
Consider `Cc1cc(S(C)(=O)=O)c(S(C)(=O)=O)cc1C(=O)NC(=N)N` [HCl-A3, N-(4,5-bis-methanesulfonyl-2-methyl-benzoyl)-guanidine], for which the “Dissolution levels in FeSSIF pH 5.0” value in data set [1] (5 min) is 0.418 mg/mL; in data set [1] (15 min), 0.74±0.02 mg/mL and 0.738 mg/mL; in data set [1] (60 min), 2.51±0.02 mg/mL and 2.506 mg/mL; in data set [1] (120 min), 3.78±0.02 mg/mL and 3.781 mg/mL. The “Hygroscopicity classification acc. to Ph. Eur. criteria (section 5.11.)” value in data set [2] is on record as “non-hygroscopic”. Also, the “Water uptake levels” value in data set [2] (setting [6]) is on record as ≤ 0.4 wt %. The “Thermal stability (mp/dec)” value in data set [3] is > 240 °C.
`Cc1cc(S(C)(=O)=O)c(S(C)(=O)=O)cc1C(=O)NC(=N)N.Cl.O` [HCl-H1, N-(4,5-bismethanesulfonyl-2-methylbenzoyl)-guanidine hydrochloride hydrate, reference compound]: the “Dissolution levels in FeSSIF pH 5.0” value in data set [1] (5 min) is 0.494 mg/mL. Moreover, the “Hygroscopicity classification acc. to Ph. Eur. criteria (section 5.11.)” value in data set [2] is recorded as “non-hygroscopic”. Further, the “Water uptake levels” value in data set [2] (setting [6]) is given as ≤ 0.2 wt %.
On to `Cc1cc(S(C)(=O)=O)c(S(C)(=O)=O)cc1C(=O)NC(=N)N` [Malate-NF1, N-(4,5-bis-methanesulfonyl-2-methyl-benzoyl)-guanidine], for which the “Dissolution levels in FeSSIF pH 5.0” value in data set [1] (5 min) is 5.510 mg/mL; in data set [1] (15 min), 5.51±0.02 mg/mL and 5.510 mg/mL; in data set [1] (60 min), 5.51±0.02 mg/mL and 5.510 mg/mL; in data set [1] (120 min) it was 4.27±0.02 mg/mL and 4.275 mg/mL. Besides, the “Dissolution behavior compared to prior-art form HCl-H1” value in data set [1] is “improved dissolution behavior”. Also, the “Hygroscopicity classification acc. to Ph. Eur. criteria (section 5.11.)” value in data set [2] is “hygroscopic”. In data set [2] (setting [4]), the “Water uptake levels” value stood at 7.5 wt %.
As to `Cc1cc(S(C)(=O)=O)c(S(C)(=O)=O)cc1C(=O)NC(=N)N` [Maleate-NF1, N-(4,5-bis-methanesulfonyl-2-methyl-benzoyl)-guanidine], the “Thermal stability (mp/dec)” value in data set [3] was > 170 °C.
Turning to `Cc1cc(S(C)(=O)=O)c(S(C)(=O)=O)cc1C(=O)NC(=N)N` [Maleate-NF2, N-(4,5-bis-methanesulfonyl-2-methyl-benzoyl)-guanidine], the “Dissolution levels in FeSSIF pH 5.0” value is 2.043 mg/mL in data set [1] (5 min); 4.30±0.02 mg/mL and 4.296 mg/mL in data set [1] (15 min); 6.35±0.02 mg/mL and 6.350 mg/mL in data set [1] (60 min); 6.35±0.02 mg/mL and 6.350 mg/mL in data set [1] (120 min). In addition, the “Dissolution behavior compared to prior-art form HCl-H1” value in data set [1] is listed as “improved dissolution behavior”. Besides, in data set [2], the “Hygroscopicity classification acc. to Ph. Eur. criteria (section 5.11.)” value is on record as “non-hygroscopic; also recorded: slightly hygroscopic”. Besides, the “Water uptake levels” value in data set [2] (setting [6]) is reported as ≤ 0.3 wt %. The “Tendency to undergo hydrate formation” value in data set [2] is listed as “no tendency to undergo hydrate formation”. For the same compound, the “Thermal stability (mp/dec)” value in data set [3] was > 200 °C.
